Assay results from patent US8940911B2, “Squarylated lactones inhibitors for bacterial biofilm formation” (Syracuse University, priority 2012, dated 2015).

System: E. coli RP437
Assay: Static biofilm dispersion assay (established biofilm, crystal violet)
Type: cell-based, Escherichia coli
Conditions: established 24 h E. coli RP437 biofilm, 200 μM, further 24 h
Description: Apart from the design and development of molecules that display bacterial biofilm inhibition, perhaps the greater challenge is to construct small molecules that will effectively disperse established biofilm. Generally, treatment of chronic microbial infections is commonly hindered by the presence of established biofilms that offer increased resistance to the entry of antibiotics and prevent their mode of action. In fact, bacteria in the biofilms are known to be greater than 1000-fold resistant to microbicides. […] E. coli RP437 strain was allowed to form biofilms over 24 h in the absence of any inhibitor. […]
An overnight culture of E. coli RP437 grown in LB media (OD600 of 1.0) containing streptomycin (10 μg/mL) was subsequently sub-cultured to an OD600 of 0.03-0.04 (1:100 dilution with LB media). […] Finally, the biofilm formed was quantified by transferring 100 μL of the ethanol solution into a fresh polystyrene microtiter dish that was subsequently read by an absorbance plate reader (A600). After elimination of background absorbance, the percentage dispersion was calculated by dividing the amount of absorbed crystal violet in wells that contained the synthetic compound by the amount of absorbed crystal violet in wells that contained bacteria only (control). […]

CC1=C(Br)/C(=C/Br)OC1=O [BF8 48, reference compound]
biofilm dispersal ability: 39%

C=Cc1c(NC2CCOC2=O)c(=O)c1=O (centres unmarked) [vinyl-SHL 3]
biofilm dispersal (in words): a quarter of biofilm being dispersed
